Experimental data published in ChEMBL document CHEMBL1909046, “DrugMatrix in vitro pharmacology data”.

Assays:
[1] = biological target: T1, C-C chemokine receptor type 4 (Homo sapiens, UniProt P51679); assay type: cell membranes, Membrane; conditions: chem-1; note: in other assays of this panel Not Active means under 50% inhibition at 10 µM
T1 sequence (P51679 whole entry): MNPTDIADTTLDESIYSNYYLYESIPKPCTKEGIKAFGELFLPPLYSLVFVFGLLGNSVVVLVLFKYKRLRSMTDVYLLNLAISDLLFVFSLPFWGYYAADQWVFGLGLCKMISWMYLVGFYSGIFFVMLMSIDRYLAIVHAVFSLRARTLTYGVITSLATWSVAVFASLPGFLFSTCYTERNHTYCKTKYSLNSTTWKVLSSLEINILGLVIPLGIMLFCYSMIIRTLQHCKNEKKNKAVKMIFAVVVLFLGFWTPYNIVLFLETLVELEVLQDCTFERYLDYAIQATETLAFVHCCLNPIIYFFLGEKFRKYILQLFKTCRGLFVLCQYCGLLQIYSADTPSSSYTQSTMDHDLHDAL

[2] = biological target: T2, Cysteinyl leukotriene receptor 1 (Homo sapiens, UniProt Q9Y271); assay type: cell membranes, CHO-K1, Membrane; conditions: cho-k1; note: in other assays of this panel Not Active means under 50% inhibition at 10 µM
T2 sequence (Q9Y271 whole entry): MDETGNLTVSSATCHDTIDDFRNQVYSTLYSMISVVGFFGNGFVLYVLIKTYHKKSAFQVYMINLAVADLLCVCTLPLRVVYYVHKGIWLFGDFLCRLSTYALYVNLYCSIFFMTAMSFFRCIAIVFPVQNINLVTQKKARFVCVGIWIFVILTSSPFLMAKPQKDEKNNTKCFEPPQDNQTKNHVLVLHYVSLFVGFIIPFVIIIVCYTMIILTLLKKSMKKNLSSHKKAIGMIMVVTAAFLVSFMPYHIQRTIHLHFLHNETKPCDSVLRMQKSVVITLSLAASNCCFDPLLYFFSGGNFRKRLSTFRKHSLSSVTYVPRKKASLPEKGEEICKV

[3] = biological target: T3, Polyunsaturated fatty acid lipoxygenase ALOX15 (Oryctolagus cuniculus, UniProt P12530); experiment: biochemical; assay type: tissue-based, Reticulocytes; conditions: reticulocytes;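 note: inhibition of 15-lipoxygenase enzyme activity measured with linoleic acid as the substrate; in other assays of this panel Not Active means under 50% inhibition at 10 µM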
T3 sequence (P12530 whole entry): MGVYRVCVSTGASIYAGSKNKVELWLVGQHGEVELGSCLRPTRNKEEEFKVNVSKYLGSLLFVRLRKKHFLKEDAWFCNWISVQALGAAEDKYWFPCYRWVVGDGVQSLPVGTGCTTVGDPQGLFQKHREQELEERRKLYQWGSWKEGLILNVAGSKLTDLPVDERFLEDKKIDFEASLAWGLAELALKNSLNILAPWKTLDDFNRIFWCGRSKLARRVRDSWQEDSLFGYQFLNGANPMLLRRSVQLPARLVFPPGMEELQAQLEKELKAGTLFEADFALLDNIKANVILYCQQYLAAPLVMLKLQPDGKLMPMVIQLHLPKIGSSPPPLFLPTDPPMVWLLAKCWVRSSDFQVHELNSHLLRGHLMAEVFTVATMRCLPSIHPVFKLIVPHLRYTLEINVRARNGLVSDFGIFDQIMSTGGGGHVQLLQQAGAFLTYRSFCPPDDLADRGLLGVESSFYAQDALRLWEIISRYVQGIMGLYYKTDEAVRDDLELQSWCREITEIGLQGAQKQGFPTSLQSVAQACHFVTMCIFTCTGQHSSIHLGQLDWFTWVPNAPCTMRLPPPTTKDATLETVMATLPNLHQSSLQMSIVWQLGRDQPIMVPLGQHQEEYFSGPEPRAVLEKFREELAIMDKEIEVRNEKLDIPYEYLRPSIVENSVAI

Melanocortin receptor 5 = Melanocortin receptor 5 (Homo sapiens, UniProt P33032); assay type: cell membranes, HEK293, Membrane; conditions: hek293; note: in other assays of this panel Not Active means under 50% inhibition at 10 µM
Melanocortin receptor 5, sequence (P33032 whole entry): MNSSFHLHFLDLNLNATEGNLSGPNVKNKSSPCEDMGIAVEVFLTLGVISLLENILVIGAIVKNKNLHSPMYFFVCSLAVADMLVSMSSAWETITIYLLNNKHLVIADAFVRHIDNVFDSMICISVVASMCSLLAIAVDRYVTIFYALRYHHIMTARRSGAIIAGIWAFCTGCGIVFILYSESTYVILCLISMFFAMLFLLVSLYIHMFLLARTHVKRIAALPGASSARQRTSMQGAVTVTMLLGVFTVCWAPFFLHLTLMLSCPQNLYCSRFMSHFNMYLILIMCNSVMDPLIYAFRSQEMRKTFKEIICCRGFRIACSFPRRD

[4] = biological target: T4, Nitric oxide synthase, inducible (Mus musculus, UniProt P29477); set-up: species or system Escherichia coli
T4 sequence (P29477 whole entry): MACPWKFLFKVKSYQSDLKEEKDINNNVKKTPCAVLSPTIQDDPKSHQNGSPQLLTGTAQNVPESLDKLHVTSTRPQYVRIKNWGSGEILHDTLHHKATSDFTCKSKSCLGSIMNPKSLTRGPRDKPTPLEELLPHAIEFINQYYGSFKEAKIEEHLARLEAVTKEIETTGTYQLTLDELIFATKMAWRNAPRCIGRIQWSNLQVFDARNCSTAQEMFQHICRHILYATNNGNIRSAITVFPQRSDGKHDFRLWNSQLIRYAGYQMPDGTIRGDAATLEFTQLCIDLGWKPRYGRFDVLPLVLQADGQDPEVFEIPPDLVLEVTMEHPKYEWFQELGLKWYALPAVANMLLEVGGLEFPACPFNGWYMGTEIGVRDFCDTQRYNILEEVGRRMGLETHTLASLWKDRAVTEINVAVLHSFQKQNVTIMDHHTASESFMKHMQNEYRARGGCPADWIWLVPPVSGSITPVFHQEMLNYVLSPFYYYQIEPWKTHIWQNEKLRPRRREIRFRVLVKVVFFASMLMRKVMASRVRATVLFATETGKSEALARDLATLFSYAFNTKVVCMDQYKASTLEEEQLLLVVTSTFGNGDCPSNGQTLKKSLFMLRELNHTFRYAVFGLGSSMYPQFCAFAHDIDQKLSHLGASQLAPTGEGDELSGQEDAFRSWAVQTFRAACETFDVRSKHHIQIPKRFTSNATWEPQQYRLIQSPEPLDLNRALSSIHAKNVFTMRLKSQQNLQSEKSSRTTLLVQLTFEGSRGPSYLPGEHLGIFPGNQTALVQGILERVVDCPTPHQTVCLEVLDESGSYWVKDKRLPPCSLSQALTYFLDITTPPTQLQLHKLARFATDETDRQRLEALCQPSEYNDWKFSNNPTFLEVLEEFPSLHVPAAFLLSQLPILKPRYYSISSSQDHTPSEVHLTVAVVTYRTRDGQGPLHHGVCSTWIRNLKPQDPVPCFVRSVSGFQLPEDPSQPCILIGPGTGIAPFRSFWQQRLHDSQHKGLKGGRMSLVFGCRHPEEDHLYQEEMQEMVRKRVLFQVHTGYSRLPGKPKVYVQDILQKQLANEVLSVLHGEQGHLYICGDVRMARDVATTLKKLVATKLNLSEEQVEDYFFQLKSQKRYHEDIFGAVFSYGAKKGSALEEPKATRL

Mu-type opioid receptor = Mu-type opioid receptor (Homo sapiens, UniProt P35372); experiment: DRUGMATRIX: Opiate mu (OP3, MOP) radioligand binding (ligand: [3H] Diprenorphine); assay type: cell membranes, CHO-K1, Membrane; conditions: cho-k1; Not Active = under 50% inhibition at 10 µM
Mu-type opioid receptor, sequence (P35372 whole entry): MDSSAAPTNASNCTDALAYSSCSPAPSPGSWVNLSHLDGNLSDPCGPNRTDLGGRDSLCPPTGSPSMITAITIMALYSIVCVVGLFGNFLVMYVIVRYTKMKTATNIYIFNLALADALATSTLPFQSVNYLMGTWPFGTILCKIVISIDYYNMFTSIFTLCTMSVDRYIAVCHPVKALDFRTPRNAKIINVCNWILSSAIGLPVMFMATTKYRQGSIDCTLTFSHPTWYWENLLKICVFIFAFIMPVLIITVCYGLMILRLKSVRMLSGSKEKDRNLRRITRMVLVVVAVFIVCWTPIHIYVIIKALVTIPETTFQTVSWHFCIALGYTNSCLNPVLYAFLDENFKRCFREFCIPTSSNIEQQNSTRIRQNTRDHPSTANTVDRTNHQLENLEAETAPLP

[5] = DRUGMATRIX: Phorbol Ester radioligand binding (ligand: [3H] PDBu); assay type: cell membranes, Mus musculus, ICR, Brain, Membrane; conditions: Not Active = under 50% inhibition at 10 µM
[6] = biological target: Protein phosphatase 3 catalytic subunit alpha (Homo sapiens, UniProt Q08209); set-up: species or system Escherichia coli
[7] = DRUGMATRIX: Purinergic P2X radioligand binding (ligand: [3H] alpha, beta-Methylene-ATP); assay type: cell membranes, Oryctolagus cuniculus, New Zealand albino, Urinary bladder, Membrane; conditions: Not Active = under 50% inhibition at 10 µM

COc1ccc2cc(CC(=O)O)ccc2c1
Not Active: IC50 [1] | IC50 [2] | IC50 [3] | IC50 (Melanocortin receptor 5) | IC50 [4] | IC50 (Mu-type opioid receptor) | IC50 [5] | Ki [5] | IC50 [6] | IC50 [7] | Ki [7]

CC(C)NC[C@H](O)COc1cccc2[nH]ccc12
Not Active: IC50 [1] | IC50 [2] | IC50 [3] | IC50 (Melanocortin receptor 5) | IC50 [4] | IC50 (Mu-type opioid receptor) | IC50 [5] | Ki [5] | IC50 [6] | IC50 [7] | Ki [7]

CC=CC(=O)N(CC)c1ccccc1C
Not Active: IC50 [1] | IC50 [2] | IC50 [3] | IC50 (Melanocortin receptor 5) | IC50 [4] | IC50 (Mu-type opioid receptor) | IC50 [5] | Ki [5] | IC50 [6] | IC50 [7] | Ki [7]

C=C1C(=O)O[C@@H]2C3O[C@]3(C)CC/C=C(\C)CC[C@@H]12 (some centres undefined)
Not Active: IC50 [1] | IC50 [2] | IC50 [3] | IC50 (Melanocortin receptor 5) | IC50 [4] | IC50 (Mu-type opioid receptor) | IC50 [5] | Ki [5] | IC50 [6] | IC50 [7] | Ki [7]

CC(/C=C1\SC(=S)N(CC(=O)O)C1=O)=C\c1ccccc1
Not Active: IC50 [1] | IC50 [2] | IC50 [3] | IC50 (Melanocortin receptor 5) | IC50 [4] | IC50 (Mu-type opioid receptor) | IC50 [5] | Ki [5] | IC50 [6] | IC50 [7] | Ki [7]

COc1ccc2c(c1)c(CC(=O)OCC(=O)O)c(C)n2C(=O)c1ccc(Cl)cc1 [ACEMETACIN]
Not Active: IC50 [1] | IC50 [2] | IC50 [3] | IC50 (Melanocortin receptor 5) | IC50 [4] | IC50 (Mu-type opioid receptor) | IC50 [5] | Ki [5] | IC50 [6] | IC50 [7] | Ki [7]

CCCSc1ccc2nc(NC(=O)OC)[nH]c2c1 [ALBENDAZOLE]
Not Active: IC50 [1] | IC50 [2] | IC50 [3] | IC50 (Melanocortin receptor 5) | IC50 [4] | IC50 (Mu-type opioid receptor) | IC50 [5] | Ki [5] | IC50 [6] | IC50 [7] | Ki [7]

GOLD SODIUM THIOMALATE
Not Active: IC50 [1] | Ki [1] | IC50 [2] | Ki [2] | IC50 [3] | Ki [3] | IC50 (Melanocortin receptor 5) | Ki (Melanocortin receptor 5) | IC50 [4] | Ki [4] | IC50 [5] | Ki [5] | IC50 [6] | Ki [6] | IC50 [7] | Ki [7]

OXALIPLATIN
Not Active: IC50 [1] | Ki [1] | IC50 [2] | Ki [2] | IC50 [3] | Ki [3] | IC50 (Melanocortin receptor 5) | Ki (Melanocortin receptor 5) | IC50 [4] | Ki [4] | IC50 [5] | Ki [5] | IC50 [6] | Ki [6] | IC50 [7] | Ki [7]
